Reference: patent US11358940B2, “K-Ras modulators” (THE REGENTS OF THE UNIVERSITY OF CALIFORNIA, priority 2017, dated 2022)

Legend:
[1] = target: T1, GDP loaded KRAS4b(1-169) H95C/C118S mutant (Homo sapiens, UniProt P01116, C118S/H95C); assay: MALDI-TOF percentage labeling of C95, GDP-loaded protein; format: binding; settings: for level of covalent labeling to C95 (percent of labeling), GDP, 3 h: 3 h incubation; for level of covalent labeling to C95 (percent of labeling), GDP, 6 h: 6 h incubation; for level of covalent labeling to C95 (percent of labeling), GDP, 24 h: 24 h incubation
T1 construct: loaded KRAS4b(1-169) H95C/C118S mutant
Method: (§1) Table 1 is a table summarizing levels of covalent labeling to C95 as analyzed by MALDI-TOF MS for a series of synthesized compounds. […] Both species, GDP or nonhydrolyzable analogue of GTP—GppNHp-loaded KRAS4b H95C/C118S, were then reacted with a panel of epoxides and analyzed by MALDI-TOF MS to assess level of covalent modification to C95 after 3 h, 6 h, or 24 h of incubation with the protein. All R isomers show enhanced activity compared to S isomers.
(§2) Example 18: Percentage Labeling Determination for Compounds Targeting KRAS4b Residue 95 by Matrix Assisted Laser Desorption Ionization-Time of Flight Mass Spectrometry (MALDI-TOF)
(§3) The assay uses four tool proteins: • Guanosine diphosphate (GDP) loaded KRAS4b(1-169) H95C/C118S mutant • 5′-Guanylyl imidodiphosphate (GppNHp) loaded KRAS4b(1-169) H95C/C118S mutant • GDP loaded KRAS4b(1-169) C118S mutant • GppNHp loaded KRAS4b(1-169) C118S mutant
(§4) 20 μM Solution of protein in 20 mM HEPES, 150 mM NaCl, 1 mM MgCl2, pH 7.3 buffer was prepared freshly before assay. 20 μl Aliquots of protein were dispensed on 384 well polypropylene plate, then tested compounds (0.8 μl, 10 mM in DMSO) were added to appropriate wells. For each reaction/assay three blank and three control samples were prepared by mixing 20 μl of protein solution with 0.8 μl DMSO or 10 mM standards (compounds 994566 and FB9). The wells content was carefully mixed by aspiration, then plate was sealed by adhesive cover, centrifuged at 2000 g for 1 minute and kept in dark at room temperature for 3, 6 (or 8) and 24 h.
(§5) Before each assay MALDI target (Bruker MPT 384 ground steel BC) was pre-treated by pipetting on each spot 1 μl of saturated sinapinic acid in acetonitrile (ACN).
(§6) After 24 h reaction, 2 μl of reaction mixtures were pipetted out into 20 μl MALDI matrix solution (saturated solution of sinapinic acid in 1:1 ACN:water solution containing 0.75% trifluoroacetic acid (TFA)) deposited on 384 well polypropylene plate. Resulting solution was mixed by aspiration, centrifuged at 2000 g for 1 minute, then 2 μl aliquots were dispensed on pre-treated MALDI target using Beckman Coulter Biomek FX^P 96/Span-8 Laboratory Automation Workstation. Finally, the MALDI target was dried under mild vacuum to produce spots with fine crystalline structure.
MALDI-TOF measurements were performed on Bruker Daltonics ultraflex III TOF-TOF mass spectrometer using linear mode and mass range from 5 to 45 kDa. Detector gain was set to ×9 (1734 V), sample rate to 1 GS/s, smart beam parameter set: 3_medium was used, and the laser frequency was 66.7 Hz. Spectra were automatically collected using custom AutoXecute method. Laser power was auto-adjusted using fuzzy control. The peak selection range was set to be between 19000 and 20200 Da. Peak evaluation uses half width parameter set to be smaller than 30 Da. Fuzzy control used Proteins/Oligonucleotides protocol with minimum half width ⅙ times above threshold. Up to 1500 shots were collected in 500 shot steps. Dynamic termination was implemented to finish data collection when peak intensity was reaching value of 1200 [a.u.].
Spectra were smoothed by SavitzkyGolay algorithm using 5 m/z width and three cycles. Centroid peak detection algorithm was used with signal to noise threshold set to 4, relative intensity threshold 2%, minimum intensity threshold 20 [a.u.], peak width 10 m/z and TopHat baseline subtraction. Peak intensity and area under the peak were evaluated and recorded for all peaks between 19248 Da and 20500 Da for H95/C118 mutant and 19285 Da and 20500 Da for C118 mutant respectively.
Percent of labeling was calculated using followed equation:
[formula] Similar results were obtained when peak area instead of peak height was used for calculations, however peak height method produced more reliable data in case of poor quality spectra.

[2] = target: T2, GppNHp loaded KRAS4b(1-169) H95C/C118S mutant (Homo sapiens, UniProt P01116, C118S/H95C); assay: MALDI-TOF percentage labeling of C95, GppNHp-loaded protein; format: binding; settings: for level of covalent labeling to C95 (percent of labeling), GppNHp, 3 h: 3 h incubation; for level of covalent labeling to C95 (percent of labeling), GppNHp, 6 h: 6 h incubation; for level of covalent labeling to C95 (percent of labeling), GppNHp, 24 h: 24 h incubation
T2 construct: loaded KRAS4b(1-169) H95C/C118S mutant
Method: as §1
150 to 300 μM solution of GDP loaded protein in KRAS buffer was prepared (20 mM HEPES, 150 mM NaCl, 1 mM MgCl2, 0.05 mM TCEP, pH 7.3). To this was added vigorously 1500×molar excess of 1 M ammonium sulfate in KRAS buffer, and the combination mixed gently by inverting tube. Next was prepared 250 mM solution of GppNHp (150 molar excess of GppNHp to protein; keep it on ice). To the protein was pipetted 10% of prepared GppNHp solution, then suspension of alkaline phosphatase from calf intestine on agarose was added (Sigma-Aldrich, P0726) to have 2 units of enzyme per each mg of protein. The reaction mixture was incubated at room temperature, rotating end-over for 1 h 30 min. The alkaline phosphatase was removed on agarose beads by filtering solution to a new vial using Millex-GP syringe filter. Remaining solution of GppNHp was added and incubated for additional 45 min. At the end of the exchange the protein was filtered again, placed on ice, and purified on NGC medium-pressure chromatography system (Bio-Rad). Five in-lane connected desalting columns (5×GE Healthcare HiTrap Desalting columns 5 ml, 17-1408-01) were used with isocratic elution of KRAS buffer at 4 ml/min. The protein elution was monitored at 280 nm. The concentration of final protein was evaluated by NanoDrop 2000 spectrophotometer (Thermo Fisher) using molar attenuation coefficient ε=19685 l·mol^−1·cm^−1. The quality of the protein was confirmed by MALDI and the exchange rate was assessed by HPLC based assay.
as §2, §3, §4, §5, §6
MALDI-TOF measurements were performed on Bruker Daltonics ultraflex III TOF-TOF mass spectrometer using linear mode and mass range from 5 to 45 kDa. […]

SMILES | level of covalent labeling to C95 (percent of labeling), GDP, 3 h [1] | level of covalent labeling to C95 (percent of labeling), GDP, 6 h [1] | level of covalent labeling to C95 (percent of labeling), GDP, 24 h [1] | level of covalent labeling to C95 (percent of labeling), GppNHp, 3 h [2] | level of covalent labeling to C95 (percent of labeling), GppNHp, 6 h [2] | level of covalent labeling to C95 (percent of labeling), GppNHp, 24 h [2]
CC(C)Cc1ccc(C(C)C(=O)NCc2cn(C[C@@H]3CO3)nn2)cc1 (stereo partly drawn) | 36% | 73% | 98% | 0% | 2% | 17%
Cn1cc(C(=O)NCc2cn(C[C@@H]3CO3)nn2)c2cc(Br)ccc21 | 19% | 42% | 91% | 3% | 4% | 22%
COc1ccc(Cl)cc1C(=O)N[C@H]1COC1=O | 87% | 91% | 89% | 76% | 81% | 78%
CC(C)C[C@H](NC(=O)c1cn(C)c2ccccc12)C(=O)[C@@]1(C)CO1 | 0% | 0% | 0% | 0% | 0% | 0%
CC(C)C[C@H](NC(=O)c1cn(C)c2ccc(Br)cc12)C(=O)[C@@]1(C)CO1 | 0% | 0% | 0% | 0% | 0% | 0%
COc1ccc(Cl)cc1C(=O)N1CCCC(C(=O)N[C@@H](CC(C)C)C(=O)[C@@]2(C)CO2)C1 (stereo partly drawn) | 0% | 0% | 0% | 0% | 0% | 0%
Cn1nc(C(=O)NCc2cn(C[C@@H]3CO3)nn2)c2ccccc21 [drawing 514] | 3% | 9% | 38% | 0% | 3% | 13%
